According to patent US20230331676A1, “NAPHTHYLUREA COMPOUND, METHODS OF PREPARATION AND USE THEREOF” (Henan Radiomedical Science and Technology Co., Ltd., priority 2021, published 2023):

What was measured:
Format in all cases: cell-based
HepG2 cells [1] = assay: Cell cycle distribution by flow cytometry (PI), HepG2; details: hepatoma cells (HepG2), 2, 4, 8 μM, 48 h, vs DMSO
Method: (§1) MDA-MB-468 or HepG2 cells were harvested during log phase, digested, centrifuged and prepared into a single cell suspension; the number of the cells in the single cell suspension was counted; the cells were seeded into a 12-well plate, with 2×10^5 cells per well; three wells were used as a parallel control design; 16 hours after seeding, the cells were treated with the compounds. With DMSO as a solvent, the final concentrations of the compounds IY210216D-1 and ID210203C-1 in HepG2 cell suspension were 0, 2, 4 and 8 μM, respectively, and the final concentrations of the compounds IY210216D-1 and ID210203C-1 in MDA-MB-468 cell suspension were 0 and 2 μM, respectively. 48 hours later, the cells were digested with trypsin and resuspended; the number of the cells in the cell suspension was counted and diluted to 5×10^5 cells/mL; after the digestion was completed, the cell suspension was centrifuged; the supernatant was discarded; the pellet was washed twice with PBS (each time the mixture was centrifuged 2000 rpm for 5 min); the supernatant was discarded; a fixative comprising 980 μL of 70% cold ethanol and 20 μL of 5% BSA (a small amount of BSA reduces cellular stress and damage) was added to each microcentrifuge tube, so that the cells were fixed overnight at 4° C.; the fixative is discarded; the cells were washed three times in PBS to remove residual fixative (each time the mixture was centrifuged at 1000 rpm for 3 min); a DNA quantification kit is used to measure the content of DNA according to the following instruction (Suo Laibao, Beijing): each sample was incubated in 100 μL of RNase A at 37° C. for 30 min; 500 μL of PI (propidium iodide) was added to each sample; each sample was incubated at room temperature for 30 min in the dark; the cell cycle was analyzed by a flow cytometry and a ModFit software; and Graphpad prism 6.0 was used to estimate the percentage of a cell population in the different phases of the cell cycle.

HepG2 cells [2] = assay: Apoptosis by Annexin V-FITC/PI flow cytometry, HepG2; details: HepG2, 0, 2, 4, 8 μM, 48 h, vs control group
Method: (§2) The MDA-MB-468 or HepG2 cells were harvested during log phase, digested, centrifuged and prepared into a single cell suspension; the number of the cells in the cell suspension was counted; the cells were seeded into a 12-well plate, with 2×10^5 cells per well; three wells were used as a parallel control design; 16 hours after seeding, the cells were treated with the compounds.
(§3) With DMSO as a solvent, the final concentrations of the compounds IY210216D-1 and ID210203C-1 in HepG2 cell suspension were 0, 2, 4 and 8 μM, respectively, and the final concentrations of the compound IY210316B-1 in MDA-MB-468 cell suspension were 0 and 0.12 μM, respectively. […]

HepG2 liver cancer cells = assay: Q-PCR of mRNA level of cell cycle and metastasis related molecules; details: HepG2, 4 μM, 24 hours; for down-regulation of Cyclin B1 (CCNB1) mRNA level / down-regulation of Cyclin D1 (CCND1) mRNA level: relative to actin gene
Method: HepG2 liver cancer cells were seeded in a 6-well plate, with 1×10^6 cells per well, and treated with the compounds IY210216D-1 and ID210203C-1 (in 0 and 4 μM concentrations) for 24 h; total RNA was extracted from the HepG2 liver cancer cells by a single-step TRIzol method; the concentration and purity of the total RNA was measured; the total RNA was used as a template; and complementary DNA (cDNA) was synthesized from the RNA template according to the instruction of a reverse transcription kit (Promega); sqRT-PCR and qPCR were used to quantify the expression of the genes CCNB1, CDK1 and SQSTM; and the gene ACTB was used as an internal reference gene for gene expression normalization.
A20 μL reaction mix for qPCR contained: • 2 μL of cDNA; • 10 μL of 2×SYBR Green Supermix; • 1 μL of upstream and downstream primers; • 0.3 μL of reference dye; • 6.7 μL of water. • Each sample has three technical replicates. • Cycling conditions comprised: • pre-denaturation at 95° C. for 5 min; • denaturation at 95° C. for 15 sec; • annealing at 60° C. for 15 sec; and • extension at 72° C. for 30 sec.
After 40 cycles, the cycle […] (CT) value of the […] gene was used as an initial value in comparison with the amount of the amplified product.

[3] = test system: tumor cells such as breast cancer (MDA-MB-468) and liver cancer (HepG2); assay: MTT assay, inhibition of tumor cell proliferation; details: 48 h, compared with positive control WP1066, IC50 values only in FIG. 1
Method: Tumor cells in logarithmic growth phase were collected; the cell suspension was diluted to a density of 5×10^4 cells/mL; 100 uL of the cell suspension was transferred to each hole of a 96-well plate; DMSO was used as a solvent for negative control; (2E)-3-(6-bromo-2-pyridyl)-2-cyano-N-[(1S)-1-phenylethyl]-2-acrylamide (WP1066CAS: 857064-38-1, with a formula
was used as a positive control; the naphthylurea compounds IY210216D-1, ID210203C-1 and IY210316B-1 were diluted with DMSO and added into the 96-well plate to a final concentration of 0.1, 0.3, 1, 3, 10, 30, 100 and 300 μmol/L; the 96-well plate was incubated for 48 h; 10 μL of MTT solvent (5 mg/mL) was added into each well; the 96-well plate was incubated at 37° C. for 4 h; a culture supernatant was discarded; 150 μL of DMSO was added into each well; the 96-well plate was shaken for 10 min on a plate shaker; an optical density (OD) of the resulting product was measured at a wavelength of 490 nm by an ELISA reader. Test results were recorded. A cell growth curve was drawn with the dosage of each compound as abscissa and the absorbance value as ordinate. The statistical results of the half inhibition rate (IC50 value) of tumor cells by the compounds IY210216D-1, ID210203C-1 and IY210316B-1 were shown in FIG. 1.

MDA-MB-468 cells [4] = assay: Cell cycle distribution by flow cytometry (PI), MDA-MB-468; details: breast cancer cells (MDA-MB-468), 2 μM, 48 h, vs DMSO
Method: as §1

MDA-MB-468 cells [5] = assay: Apoptosis by Annexin V-FITC/PI flow cytometry, MDA-MB-468
Method: as §2, §3

[6] = test system: JAK2/STAT3 signal axis in MDA-MB-468 or HepG2 cells; assay: Western blot of JAK2/STAT3 signal axis protein expression; details: MDA-MB-468 (0, 0.5, 1 μM) or HepG2 (0-8 μM), 48 h, vs solvent control; dose-dependent
Method: MDA-Mb-468 or HepG2 cells in logarithmic growth phase were inoculated in a 6-well plate, with 8×10^5 cells per well. After cell adhesion, the compound ID210203C-1 was added until a final concentration thereof was 0, 0.5, 1 or 0, 0.5, 1, 2, 4 and 8 μM respectively. After about 48 hours, the cells were lysed with RIPA lysate and proteins were collected for Western blot analysis. The protein expressions were respectively detected through the anti-JAK2, p-JAK2, STAT3, p-STAT3, CyclinD1, p-AKT, p-ERK and β-actin antibodies.

Row | SMILES | G1 phase ratio (HepG2 cells [1]) | G2 phase ratio (HepG2 cells [1]) | induction of apoptosis (HepG2 cells [2]) | expression of MMP9 at mRNA level (HepG2 liver cancer cells) | down-regulation of Cyclin B1 (CCNB1) mRNA level (HepG2 liver cancer cells) | down-regulation of Cyclin D1 (CCND1) mRNA level (HepG2 liver cancer cells) | inhibitory effect on the proliferation of tumor cells [3] | G1 phase ratio (MDA-MB-468 cells [4]) | S phase ratio (MDA-MB-468 cells [4]) | apoptosis of breast cancer cells (MDA-MB-468 cells [5]; 0.12 μM, 48 hours) | induction of apoptosis (MDA-MB-468 cells [5]; MDA-MB-468, 0 and 0.12 μM, 48 h, vs control group) | expression level of CyclinD1 [6] | expression level of p-JAK2 [6] | expression level of p-STAT3 [6]
1 | O=C(Nc1ccc(OCc2ccc(OCCN3CCCCC3)cc2)c2ccccc12)NC1CCOCC1 [IY210216D-1] | significant decrease | significant increase | increased apoptosis in a dose-dependent manner | down-regulating | ~10 folds | ~10 folds | good inhibitory effects | decrease | significant increase | – | – | – | – | –
2 | O=C(NCc1ccccn1)Nc1ccc(OCc2ccc(OCCN3CCCCC3)cc2)c2ccccc12 [IY210316B-1, 1-(4-((4-(2-(piperidin-1-yl)ethoxy)benzyl)oxy)naphthalen-1-yl)-3-(pyridin-2-ylmethyl)urea] | – | – | – | – | – | – | good inhibitory effects | – | – | 43.86% | increased apoptosis in a dose-dependent manner | – | – | –
3 | O=C(NCc1ccncc1)Nc1ccc(OCc2ccc(OCCN3CCCCC3)cc2)c2ccccc12 [ID210203C-1] | significant decrease | significant increase | increased apoptosis in a dose-dependent manner | down-regulating | ~10 folds | ~10 folds | good inhibitory effects | decrease | significant increase | – | – | significantly inhibit | significantly inhibit | significantly inhibit
